Measured values: patent US11541030B2, “Methods for the treatment of inflammation associated with infection” (NOXOPHARM LIMITED, priority 2020, dated 2023)

What was measured:
[1] = tested on: TLR4 (LPS); assay: LPS-induced IL-6 in hTERT immortalised foreskin fibroblasts; format: cell-based, human; details: 2.5 uM IDX or H151 pre-treatment, 7 h LPS (100 ng/ml)
Experimental: (§1) IL-6 levels were measured in the supernatants by ELISA.
(§2) To determine the specificity of IDX on STING signalling, human hTERT immortalised foreskin fibroblasts which have functional TLR4 (LPS) and TLR3 (PolyI:C) responsiveness were tested. […] (FIG. 6).

[2] = tested on: TLR3 (PolyI:C); assay: PolyI:C-induced IL-6 in hTERT immortalised foreskin fibroblasts; format: cell-based, human; details: 2.5 uM IDX or H151 pre-treatment, 7 h polyI:C (20 ug/ml)
Experimental: as §1, §2

[3] = tested on: TC-1 cells (cGAS-STING); assay: CPT-induced IL-6 in TC-1 cells; details: TC-1, 0.5 μM CPT 48 hours; H151 1.8 μM, IDX 2.5 μM
Experimental: FIG. 7: Mouse TC-1 cells were plated in the presence of 0.5 μM CPT for 48 hours, with the following compounds, where indicated: H151 (1.8 μM), IDX (2.5 μM). IL-6 levels were determined by ELISA. Data shown are averaged from 2 (for H151) or 3 independent experiments (conducted with biological replicate), ±standard deviation (SD). […] Each point represents the mean data for each independent experiment; the column represents the mean of the experiments. *, P≤0.05; **, P≤0.01; ***, P≤0.001; ****, P≤0.0001, ns: non-significant.
Cell culture and reagents.
Murine IP-10 production and IL-6 in supernatant of iBMMs and TC-1 was quantified using Mouse CXCL10/IP-10/CRG-2 Duo Set ELISA (R&D systems, #Dy466) and the IL6 OptE1A ELISA Kit mouse (BD Bioscience, #555240), respectively, according to the manufacturer's protocol. Similarly, human IP-10, TNF-α and IL-6 production was measured in cell supernatants using human IP-10 OptEIA ELISA kit (BD Biosciences, #555157), human OptEIA TNF-α kit (BD Bioscience, #555212) and human IL-6 OptEIA ELISA Set (BD Biosciences, #555220). Tetramethylbenzidine substrate (ThermoFisher Scientific) was used for quantification of the cytokines on a Fluostar OPTIMA (BMG LABTECH) plate-reader.

[4] = tested on: STING signalling (STING, TBK1, IRF3, p-65); assay: Western blotting of DMXAA-stimulated immortalised mouse bone marrow derived macrophages; format: cell-based; details: 2.5 uM IDX 1 h
Experimental: FIG. 11: Immortalised mouse bone marrow derived macrophages were pre-treated for 1 hour with 2.5 uM IDX prior to stimulation for an indicated amount of time with DMXAA (50 ug/mL), and then lysed and analysed by Western blotting using specific total or phospho-antibody. The results on STING and p-STING are representative of 3 independent experiments.
Western Blotting: Following lysis in RIPA buffer supplemented with complete mini protease inhibitor cocktail (Sigma #4693124001) and phosSTOP inhibitor (Sigma #4906845001), the samples were subjected to SDS-Page analyses, on NuPAGE 4%-12% Bis-Tris Protein Gels (Thermo Scientific) with MES or MOPS running buffer (Thermo Scientific), as previously reported (4). Anti-Sting (#13647), Phospho-Sting (#72971), TBK1 (#3013), phospho-TBK1 (#5483), IKKe (#3416), phospho-IKKe (#8766), IRF-3 (#4302), phosphor-IRF3 (#4947), p-65 (#4764), phospho-p-65 (#3033) antibodies were all from Cell Signalling. Anti-beta-Actin antibodies (#Ab49900) were from Abcam.
To further determine the direct activity of IDX on STING, immortalised mouse bone marrow derived macrophages were stimulated with DMXAA for 1, 2 or 3 hours in the presence of IDX (FIG. 11). The cell lysates were analysed by Western blotting using specific total or phospho-antibody against STING, TBK1, IRF3, and p-65 (FIG. 11). In support of its inhibitory activity on downstream STING signaling, IDX decreased phosphorylation of TBK1 and IRF3 and also STING itself. […] While these effects could all be dependent on TBK1 inhibition by IDX, the inventors also observed decreased p-65 phosphorylation that was not dependent on TBK1 in this cell system (4).

[5] = molecular target: T1, human STING (Homo sapiens, UniProt Q86WV6, G230A/H232R/R293Q/R71H); assay: STING agonist-driven IP-10 and IFNβ in THP-1 cells; format: cell-based; details: THP-1, 2.5 uM IDX 1 hour
T1 construct: endogenous in cells; host or cells: human THP-1 cells
T1 sequence (Q86WV6 whole entry R71H/G230A/H232R/R293Q): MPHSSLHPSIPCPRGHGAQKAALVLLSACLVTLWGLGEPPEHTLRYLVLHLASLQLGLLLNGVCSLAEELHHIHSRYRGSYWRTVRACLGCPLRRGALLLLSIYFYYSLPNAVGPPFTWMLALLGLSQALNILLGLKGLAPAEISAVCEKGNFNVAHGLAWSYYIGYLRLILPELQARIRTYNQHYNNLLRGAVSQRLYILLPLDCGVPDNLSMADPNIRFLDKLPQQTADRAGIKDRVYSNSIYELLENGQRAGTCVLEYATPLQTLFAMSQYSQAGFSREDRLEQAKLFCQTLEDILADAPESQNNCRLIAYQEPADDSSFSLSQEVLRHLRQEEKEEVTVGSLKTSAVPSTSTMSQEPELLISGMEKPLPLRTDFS

[6] = tested on: human hTERT fibroblasts; assay: Cell proliferation of hTERT fibroblasts; format: cell-based; details: 10 μM IDX, 72 hours
[7] = tested on: basal STING signalling in Trex1-mutant mice; format: in vivo, mouse; details: 2 mg/kg i.p. daily for 10 days
[8] = tested on: influenza A virus (IAV) driven lung inflammation; assay: Influenza A virus infection in lung TGF-β1 transgenic mice; format: in vivo, mouse; details: 5 mg/kg daily from day 1 after IAV infection until day 3
[9] = Fresh versus frozen DMSO stock comparison; format: physicochemical; details: 40 mM stock in DMSO kept frozen at −20C
[10] = molecular target: T2, mouse STING (Mus musculus, UniProt Q3TBT3); assay: DMXAA-induced ISRE-luciferase in L929 cells; details: 2.5 uM IDX; DMXAA up to 100 ug/ml
T2 sequence (Q3TBT3 1-378): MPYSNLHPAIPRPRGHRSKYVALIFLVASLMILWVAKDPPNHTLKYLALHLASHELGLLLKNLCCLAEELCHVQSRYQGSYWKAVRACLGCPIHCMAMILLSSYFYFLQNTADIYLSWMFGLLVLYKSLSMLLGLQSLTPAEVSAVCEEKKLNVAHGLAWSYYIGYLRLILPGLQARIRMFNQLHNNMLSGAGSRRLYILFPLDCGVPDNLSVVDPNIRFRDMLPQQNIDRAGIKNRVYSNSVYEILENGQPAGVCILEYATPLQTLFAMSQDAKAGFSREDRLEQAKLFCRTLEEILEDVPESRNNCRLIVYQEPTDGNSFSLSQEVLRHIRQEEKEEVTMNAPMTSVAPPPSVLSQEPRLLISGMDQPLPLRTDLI
Experimental: FIG. 2: Mouse L929 cells stably expressing an IFN-stimulated responsive element (ISRE)-luciferase reporter were pre-treated for 1 h with indicated doses of IDX, prior an 8 h stimulation with 20 ug/ml DMXAA. Cells were lysed and firefly luciferase was quantified at the end of the experiment. Data shown are averaged from 2 independent experiments in biological triplicate, relative to DMXAA and DMSO only condition control (±SEM).
Luciferase assays were carried out at 8 hours. Data were normalised to DMSO+DMXAA only condition, and are shown as averages from 3 independent experiments (conducted with biological replicate), ±SD. Each point represents the mean data for each independent experiment; the column represents the mean of the experiments.
To determine whether IDX could inhibit STING signalling more directly, mouse L929 cells stably expressing an IFN-stimulated-responsive luciferase (ISRE-Luc) were pretreated with IDX at various doses for 1 h, prior to DMXAA stimulation for 8 h (FIG. 2).
Using mouse L929 cells stably expressing an interferon (IFN)-stimulated responsive element (ISRE)-Luciferase construct referred to as LL171 cells (2) and stimulated with the murine STING agonist DMXAA, the inventors speculated that the DMXAA-induced IFN-β production and downstream ISRE-Luciferase expression would only be minimally impacted by IDX if it selectively acted on NF-κB signalling.

[11] = tested on: human STING (PBMCs); assay: STING agonist-induced IL-6 and TNFα in human PBMCs; details: PBMCs from two donors, 2.5 μM IDX pre-treatment, GSK STING agonist 100 nM 6 hours
Experimental: The supernatants were collected and analysed for IL-6 and TNFα production by ELISA. Data shown are as average from 2 independent donors (conducted with biological replicate for each donor), ±SEM.
Similarly, human IP-10, TNF-α and IL-6 production was measured in cell supernatants using human IP-10 OptEIA ELISA kit (BD Biosciences, #555157), human OptEIA TNF-α kit (BD Bioscience, #555212) and human IL-6 OptEIA ELISA Set (BD Biosciences, #555220). Tetramethylbenzidine substrate (ThermoFisher Scientific) was used for quantification of the cytokines on a Fluostar OPTIMA (BMG LABTECH) plate-reader.

[12] = tested on: cGAS/STING (mouse STING-mCherry), IFN-β-luciferase reporter; assay: IFN-β-luciferase reporter in HEK-Sting cells overexpressing cGAS-GFP; details: different doses overnight
Experimental: FIG. 1: Human HEK cells constitutively expressing mouse STING-mCherry were co-transfected with cGAS-GFP and an interferon (IFN)beta-luciferase (A) or an NF-κB-Luc reporter (B) reporter for 3 h prior to being treated overnight with indicated concentration of IDX (in equal volume of DMSO). Firefly luciferase was quantified the next day. Data shown are averaged from 2 (B) or 3 (A) independent experiments in biological triplicate, relative to DMSO only condition control (±SEM).
Cell culture and reagents.
Cell transfections: HEK Sting cells were reverse transfected with 200 ng of IFNb-Luciferase reporter and 400 ng of cGAS-GFP overexpression vector, using 1.8 ul lipofectamine 2000 and ˜600,000 cells, per well of a 96 well plate (as previously reported (8)). After 3 h, the cells were collected and aliquoted in 12 wells of a 96 well plate (for each well of a 6 well plate), and treated with indicated doses of IDX overnight, prior lysis in 40 ul of Glo lysis buffer the next day (Promega). Luciferase assays were carried out using the Promega Luciferase Assay System on a on a Fluostar OPTIMA (BMG LABTECH) plate-reader.

[13] = tested on: basal Sting signalling; assay: Interferon stimulated genes in primary BMDMs from Trex1-mutant mice (RT-qPCR); details: overnight 1.25 and 2.5 μM IDX

CCc1ccc(NC(=O)Nc2c[nH]c3ccccc23)cc1 [H151, reference compound]
IL-6 production, LPS stimulation [1]: only modestly reduced
IL-6 production, PolyI:C stimulation [2]: only modestly reduced
CPT-induced IL-6 production [3]: strongly reduced

Oc1ccc(C2=Cc3ccc(O)cc3OC2)cc1 [IDX, 2H-1-Benzopyran-7-0,1,3-(4-hydroxyphenyl)]
IL-6 production, LPS stimulation [1]: only modestly reduced
IL-6 production, PolyI:C stimulation [2]: only modestly reduced
p-65 phosphorylation ([4]; DMXAA 50 ug/mL 1, 2 or 3 hours): decreased
phosphorylation of IRF3 ([4]; DMXAA 50 ug/mL 1, 2 or 3 hours): decreased
phosphorylation of STING ([4]; DMXAA 50 ug/mL 1, 2 or 3 hours): decreased
phosphorylation of TBK1 ([4]; DMXAA 50 ug/mL 1, 2 or 3 hours): decreased
shift in size of total STING (STING activation) ([4]; DMXAA 50 ug/mL, 3-hour period): attenuated
IP-10 production driven by ADU-S100 ([5]; ADU-S100 30 uM 6 hours): strongly inhibited
IP-10 production driven by synthetic STING agonist (GSK) ([5]; GSK agonist 100 nM 6 hours): strongly inhibited
reduction of IFNβ production ([5]; synthetic STING agonist (GSK) 100 nM 6 hours, IFNβ ELISA): ~50%
impact on cell proliferation [6]: little impact
Ifi44 expression in the spleen [7]: decreased
Ifih1 expression in the spleen [7]: decreased
Isg15 expression in the spleen [7]: significant decreased
Rsad2 expression in the spleen [7]: decreased
serum TNFα levels ([7]; compared to PBS controls): decrease
IL-6 in bronchial alveolar lavages [8]: significantly reduce
activity of fresh versus frozen IDX stock [9]: did not show any difference of activity
CPT-induced IL-6 production [3]: significantly reduced
effect of increasing DMXAA on inhibition of ISRE-Luc [10]: did not reverse the inhibition
IL-6 production [11]: reduced
TNFα production [11]: reduced
inhibition of IFN-β-luciferase [12]: potent inhibitor
Ifih1 expression [13]: dose-dependent inhibition
Ifit1 expression [13]: dose-dependent inhibition
Rsad2 expression [13]: dose-dependent inhibition

CC(=O)Oc1ccccc1C(=O)O [aspirin]
CPT-induced IL-6 production [3]: strongly reduced
